Source: PMC9535023, “Inhibition of phospholipase D1 induces immunogenic cell death and potentiates cancer immunotherapy in colorectal cancer” (Experimental & Molecular Medicine, 2022)
Read-outs that look alike come from different tables or passages of the source.

Key:
DLD1 cells [1] = assay: Cell viability (MTT); assay type: cell-based
Description: Cell viability was measured by MTT (3-(4,5-dimethylthiazol2-yl)-2,5-diphenyltetrazolium bromide, Sigma-Aldrich). Cells (5 × 10^3 cells/well) were seeded in a 96-well plate. […] After treatment, the cells were incubated with 0.5 mg/mL MTT in the media for 2 h and lysed with DMSO. Absorbance was measured at 570 nm using a VersaMax ELISA microplate reader (Molecular Devices).

β-catenin/TCF-4 complex = assay: Immunoprecipitation of β-catenin/TCF-4; assay type: cell-based; settings: 2 μM, 12 h, CRC cells
Description: As previously described, lysates from cells or colorectal cancer (CRC) tissues were analyzed by immunoprecipitation, and/or Western blotting was performed as described previously. The antibodies used are listed in Supplementary Table 5. A polyclonal anti-PLD antibody that recognizes both PLD1 and PLD2 was generated, as previously described. The use of human CRC tissue samples was approved by the Institutional Review Board of Pusan National University, Korea (PNU IRB/2011-6).

HCT116 cells [2] = assay: miR-4496 promoter and β-catenin 3′-UTR luciferase reporters; assay type: cell-based
In vivo pharmacokinetics = assay: In vivo pharmacokinetics; design: species or system mouse; AUCinf: unit not given here; settings: for half-life: read-out: t1/2 (terminal half-life) (converted)
Description: Supplementary Table 4. Plasma pharmacokinetics of A3373
The pharmacokinetic parameters were estimated with non-compartmental analysis using
PKSolver, based on the concentration- time profiles of A3373 in the plasma samples following
single IV (5 mg/kg) and PO (10 mg/kg) dose in mice (n=3). Abbreviations: T1 /2, elimination
half life; Tmax, time to peak concentration; AUC, area under the concentration–time curve;
MRT, mean residence ti me; Vz, the volume in the terminal state; CL, clearance; Vss, steady-
state volume of distribution; F, absolute bioavailability. […]
Male ICR mice (8 weeks old, 30~35 g) were accli mated to the testing facility in a temperature
and humidity controlled condition for approximately a week prior to the study. 1 mg/mL of
A3373 solution in dimethylacetamide/tween 80/saline (10/10/80 vol%) was dosed orally (10
mg/kg in a volume of 10 mL/kg) or by tail vein injection (5 mg/kg in a volume of 5 mL/kg) to
the animals. About 40 μL of blood samples were collected in BD Microtainer plasma s eparator
tubes at selected times through the saphenous vein over 24 hour s post-dosing. Blood samples
were centrifuged at 6,000 x g for 5 minutes to separat e plasma and stored in a freezer until
analyzed. Protein precipitation was conduct ed on 15 μL aliquot of plas ma samples with 3
volumes of acetonitrile containing glipizide as analytical internal standard. After centrifugation,
the supernatant was analyzed by Agilent 6460 QQQ LC-MS/MS system in a negative MRM
mode. Briefly, chromatography was performed on a Phenomenex Kinetex C18 column (2.1 ×
50 mm, 2.6 μm) with a linear gradient of the mobil e phases 10 mM aqu eous ammonium acetate
and acetonitrile. […]

PLD = PLD activity assay in HCT 116 cells; assay type: cell-based; settings: at 10 μM (Fig. 1c)
Description: Cells were labeled with [H^3] myristic acid, and PLD activity was assessed by measuring the formation of [H^3] phosphatidylbutanol, which is the product of PLD-mediated transphosphatidylation, in the presence of 1-butanol, as previously described.

[3] = Single oral dose toxicity in mice; settings: female and male mice
HCT116 cells [4] = assay: Flow cytometry of do not eat-me signals and calreticulin; assay type: cell-based
DLD1 cells [5] = assay: Flow cytometry of CD44 and CD133; assay type: cell-based; settings: dose-dependent, mean fluorescence intensity
MC38 cells = assay: MC38 syngeneic tumor model; assay type: in vivo, mouse
Description: manner. The incision was extended to 2–3 cm, and the cecum was exposed. 2 × 10^5 MC38-GFP-Luciferas e cells were suspended in 50 µL PBS and injected into the cecum. Seven days after cell injection, 10 mg/kg A3373 was orally administered to the mice daily for 4 weeks.
A colon can cer syngenei c model was established using 6- weeks-old C57B L/6 male mice. 2 × 10^5 MC38 cells were suspended in 50µ l PBS and subcutaneously injected into the flanks of the mice. After 7 days of cell injection, mice were randomized into four groups and all groups were treated as follows for 2 weeks: vehicle grou p, mice were IP administered vehicle every day; A3373 group, mice were IP administrated with 10 mg/kg A3373 every day; α PD-L1 antibody group, mice were IP administrated with 5 mg/kg anti-mouse PD-L1 (BioXcell) eve ry two days; A3373 + αPD-L1 antibody group, mice received A3373 (10 mg/kg) daily with anti - mouse PD-L1 (5 mg/kg) every 2 days. Tumor volume was measured in MC38 cells subcutaneous injected mice every 2 days after 7 days of cell injection. External tumor measurements were made using precision calipers, and tumor volume (TV) was calcul ated according to the following formula: TV = (W × L2)/2 (W = width and L = l ength).
. All animal procedu res were performed in accordance with the institutional guidelines for animal research and were approved by the Institutional Animal Care and Use Committee of Yonsei University (IACUC- […]
In a colon cancer orthotropic model, tumor-infiltrating lymphocytes (TILs) were isolated from the tumor tissue 30 days after cell injection. […]
After 20 minutes of incubation, 0.1 M EDTA was added to prevent clumping. Cells were filtered through a 40 µm nylon mesh, single-cell suspensions were counted and used for the experiments. […] Isolated tumor cells were cultured for one passage to change the immunocompromised phenotype and assessed using flow cytometry. […]

[6] = male, ICR, mouse, plasma, IV 5 mg/kg, mice
[7] = male, ICR, mouse, plasma, PO 10 mg/kg, mice

O=C(Nc1cc(C(F)(F)F)cc(C(F)(F)F)c1)c1cc2cc(F)ccc2[nH]1 [Compound A3373]
potency in suppressing viability, comparison (DLD1 cells [1]; DLD1 cells): higher potency in suppressing viability than that of VU0155069 | viability of DLD1 cells, in words (DLD1 cells [1]; dose- and time-dependent): significantly inhibited the viability | endogenous interaction between β-catenin and TCF-4 (β-catenin/TCF-4 complex): disrupted the endogenous interaction between β-catenin and TCF-4 | luciferase activity of the β-catenin 3′-UTR reporter (HCT116 cells [2]): significantly suppressed the luciferase activity | promoter activity of miR-4496 (HCT116 cells [2]): increased the promoter activity of miR-4496 | t1/2 (terminal half-life) (In vivo pharmacokinetics; IV 5 mg/kg, mice, 5 mg/kg): 3.2 h | AUCinf (In vivo pharmacokinetics; PO 10 mg/kg, male ICR mice): 13,647.5 ± 1506.9 | Tmax (In vivo pharmacokinetics; PO 10 mg/kg, male ICR mice): 0.5 h | Vd (In vivo pharmacokinetics; male, ICR, mouse, plasma, iv, 5 mg/kg, IV 5 mg/kg, mice, read-out: Vss (steady state volume)): 2.1 ± 0.1 L/kg | Vd (In vivo pharmacokinetics; male, ICR, mouse, plasma, iv, 5 mg/kg, IV 5 mg/kg, mice, read-out: Vz): 3.7 L/kg | half-life (In vivo pharmacokinetics; male, ICR, mouse, plasma, iv, 5 mg/kg, IV 5 mg/kg, mice): ~3.2 h | half-life (In vivo pharmacokinetics; male, ICR, mouse, plasma, po, 10 mg/kg, PO 10 mg/kg, mice): 3.8 h | AUC(0-inf) (In vivo pharmacokinetics; [6]): 6320 ng·h/mL | AUC(0-t) (In vivo pharmacokinetics; [6]): 6300 ng·h/mL | MRT (In vivo pharmacokinetics; [6]): 2.6 h | clearance (In vivo pharmacokinetics; male, ICR, mouse, plasma, IV 5 mg/kg, mice, read-out: CL (clearance) (converted)): 13.3 mL/min/kg | bioavailability (In vivo pharmacokinetics; male, ICR, mouse, plasma, PO 10 mg/kg vs IV 5 mg/kg, mice, read-out: F (oral bioavailability)): 108% | AUC(0-inf) (In vivo pharmacokinetics; [7]): 13600 ng·h/mL | AUC(0-t) (In vivo pharmacokinetics; [7]): 13500 ng·h/mL | MRT (In vivo pharmacokinetics; [7]): 5.6 h | Tmax (In vivo pharmacokinetics; male, ICR, mouse, plasma, PO 10 mg/kg, mice, read-out: tmax): 0.5 h | Cmax (In vivo pharmacokinetics; mouse, plasma, PO 10 mg/kg, male ICR mice): 2630 ± 183 ng/mL | PLD activity remained (PLD): 20.6% | approximate lethal dose [3]: over 2000 mg/kg | cell-surface CRT expression, in words (HCT116 cells [4]): increased cell-surface CRT expression | levels of do not eat-me signals, in words (HCT116 cells [4]; CRC cells, flow cytometry): significantly reduced the levels of the “do not eat-me” signals | expression of CD44 and CD133 (DLD1 cells [5]): significantly decreased the expression of CD44 and CD133 | tumor formation (MC38 cells; A3373 10 mg/kg and/or αPD-L1): significantly decreased tumor formation | CD8+ T-cell-mediated killing of MC38-GFP-Luc cells, luciferase activity (MC38 cells; CD8+ T cells from treated tumor-bearing mice, increasing E/T ratio): significant reduction in luciferase activity | percentage of immune cells (CD45+ cells) in total cells (MC38 cells; tumors at maximum volume, flow cytometry, vehicle ~20%): ~50%
